Usually pEC50 stands for −log10 of the EC50, conventionally taken in molar units. A lower pEC50 goes with a high EC50.

pEC50: −log10 of the molar value.

Our source for the EC50 values is US11827629B2, “CDGSH iron sulfur domain 2 activators and use thereof” (National Health Research Institutes, priority 2021, dated 2023).

The test system of this experiment is Cisd2 promoter with firefly luciferase reporter. Briefly: Cisd2-luciferase reporter assay in HEK293-CISD2 cells. The class given is cell-based. The conditions noted are these: Homo sapiens, 24 hours incubation, luciferase luminescence. The method, then:
A typical in vitro screening method includes the following steps: (i) obtaining an initial level of Cisd2 in a batch of human embryonic kidney cells 293 (HEK-293 cells) that express Cisd2, (ii) treating the batch of HEK-293 cells with a compound of this invention, and (iii) analyzing the level of Cisd2 after the treatment, thereby determining the potency of the compound as a Cisd2 activator.
Compounds 1-109 were tested for increasing the level of Cisd2 in human embryonic kidney cells 293 (HEK293), a transfected cell line expressing Cisd2, using the Cisd2-luciferase reporter assay as follows.
The transfected HEK293 cells stably expressed Cisd2 promoter with firefly luciferase reporter (HEK293-CISD2). They were kept in Dulbecco's modified Eagle's medium (DMEM) (Gibco, New York, NY, USA). Culture medium was supplemented with 10% heat-inactivated fetal bovine serum (FBS), 2 mM L-Glutamine, 1 mM sodium pyruvate, 0.1% MEM Non-Essential Amino Acids, 1 ug/ml puromycin and 1% penicillin/streptomycin (HyClone, Logan, UT, USA). The cells were maintained at 37° C. in an incubator (Thermo Fisher Scientific, New York, NY, USA) with an atmosphere of 5% CO2. The stably transfected cells were seeded in 384-well plates at a density of 3×10^3 cells/well. After incubation with tested compounds at 37° C. for 24 hours, ONE-Glo™ Luciferase Assay System (Promega, Madison, WI, USA) was added at room temperature for 5 minutes to detect any luciferase activity. Luminescence intensity was registered using plate reader Victor^2V (PerkinElmer, Boston, MA, USA).
EC50 values in this table are presented in three classes, i.e., A: <1 μM, B: 1 μM-5 μM, and C: 5 μM-10 μM.
On the technique in general: Reporter assays use an easily measured gene product as a stand-in for the process of interest.
Compound `O=C(CSc1ncccn1)N1Cc2ccccc2C1` [Compound 22, 1-(1,3-dihydro-2H-isoindol-2-yl)-2-(pyrimidin-2-ylsulfanyl)ethanone] had a pEC50 of 5.00 to 5.30.

Turning to `O=C(CSc1cccc(F)n1)N1Cc2ccccc2C1` [Compound 73, 1-(1,3-dihydro-2H-isoindol-2-yl)-2-[(6-fluoropyridin-2-yl)sulfanyl]ethanone], the pEC50 was 5.30 to 6.00.

As to `O=C(CS(=O)(=O)c1nccs1)N1Cc2cc(F)c(F)cc2C1` [Compound 32, 1-(5,6-difluoro-1,3-dihydro-2H-isoindol-2-yl)-2-(1,3-thiazol-2-ylsulfonyl)ethanone], the pEC50 was more than 6.00.

As for `O=C(CSc1ccccn1)N1Cc2ccccc2C1` [Compound 13, 1-(1,3-dihydro-2H-isoindol-2-yl)-2-(pyridin-2-ylsulfanyl)ethanone], the pEC50 is more than 6.00.

Compound `O=C(CSc1nccs1)N1Cc2cc(F)c(F)cc2C1` [Compound 6, 1-(5,6-difluoro-1,3-dihydro-2H-isoindol-2-yl)-2-(1,3-thiazol-2-ylsulfanyl)ethanone] showed a pEC50 of 5.30 to 6.00.

In turn, `O=C(CS(=O)(=O)c1ccc(C(F)F)s1)N1Cc2ccccc2C1` [Compound 105, 2-{[5-(difluoromethyl)thiophen-2-yl]sulfonyl}-1-(1,3-dihydro-2H-isoindol-2-yl)ethanone] had a pEC50 of 5.00 to 5.30.

In turn, `Cc1cccc(S(=O)(=O)CC(=O)N2Cc3ccccc3C2)n1` [Compound 41, 1-(1,3-dihydro-2H-isoindol-2-yl)-2-[(6-methylpyridin-2-yl)sulfonyl]ethanone] had a pEC50 of 5.30 to 6.00.

Compound `O=C(CSc1nccs1)N1Cc2ccc(O)cc2C1` [Compound 3, 1-(5-hydroxy-1,3-dihydro-2H-isoindol-2-yl)-2-(1,3-thiazol-2-ylsulfanyl)ethanone] had a negative logarithm of the EC50 (pEC50) of 5.30 to 6.00.

Compound `O=C(CS(=O)(=O)Cc1ccccc1)N1Cc2ccccc2C1` [Compound 47, 2-(benzylsulfonyl)-1-(1,3-dihydro-2H-isoindol-2-yl)ethanone] had a pEC50 of 5.00 to 5.30.

Consider `O=C(CS(=O)(=O)c1ncco1)N1Cc2ccccc2C1` [Compound 104, 1-(1,3-dihydro-2H-isoindol-2-yl)-2-(1,3-oxazol-2-ylsulfonyl)ethanone], for which the pEC50 is more than 6.00.

As to `O=C(CS(=O)(=O)c1ncco1)N1Cc2ccc(F)cc2C1` [Compound 109, 1-(5-fluoro-1,3-dihydro-2H-isoindol-2-yl)-2-(1,3-oxazol-2-ylsulfonyl)ethanone], the pEC50 is more than 6.00.

In turn, `O=C(N1Cc2ccccc2C1)C(F)(F)CSc1ccccn1` [Compound 27, 1-(1,3-dihydro-2H-isoindol-2-yl)-2,2-difluoro-3-(pyridin-2-ylsulfanyl)propan-1-one] had a pEC50 of 5.30 to 6.00.

As to `O=C(CS(=O)(=O)c1ccccc1F)N1Cc2ccccc2C1` [Compound 90, 1-(1,3-dihydro-2H-isoindol-2-yl)-2-[(2-fluorophenyl)sulfonyl]ethanone], the pEC50 is more than 6.00.

As to `O=C(CS(=O)(=O)c1cc[n+]([O-])cc1)N1Cc2ccccc2C1` [Compound 44, 1-(1,3-dihydro-2H-isoindol-2-yl)-2-[(1-oxidopyridin-4-yl)sulfonyl]ethanone], the pEC50 was 5.00 to 5.30.

As to `O=C(CSc1cccc(F)c1)N1Cc2ccccc2C1` [Compound 56, 1-(1,3-dihydro-2H-isoindol-2-yl)-2-[(3-fluorophenyl)sulfanyl]ethanone], the pEC50 was more than 6.00.

Compound `O=C(NCCSc1ccccn1)N1Cc2ccccc2C1` [Compound 25, N-[2-(pyridin-2-ylsulfanyl)ethyl]-1,3-dihydro-2H-isoindole-2-carboxamide] gave a pEC50 of 5.30 to 6.00.

`O=C(CSc1ccccc1F)N1Cc2ccccc2C1` [Compound 59, 1-(1,3-dihydro-2H-isoindol-2-yl)-2-[(2-fluorophenyl)sulfanyl]ethanone] had a pEC50 of more than 6.00.

`O=C(C[S+]([O-])c1ccc(Cl)s1)N1Cc2ccccc2C1` (stereo not shown) [Compound 80, 2-[(5-chlorothiophen-2-yl)sulfinyl]-1-(1,3-dihydro-2H-isoindol-2-yl)ethanone]: the pEC50 is 5.30 to 6.00.

Turning to `O=C(CSc1nccs1)N1Cc2ccc(Cl)cc2C1` [Compound 7, 1-(5-chloro-1,3-dihydro-2H-isoindol-2-yl)-2-(1,3-thiazol-2-ylsulfanyl)ethanone], the pEC50 was more than 6.00.

For `O=C(CSc1nccs1)N1Cc2ccc(F)cc2C1` [Compound 5, 1-(5-fluoro-1,3-dihydro-2H-isoindol-2-yl)-2-(1,3-thiazol-2-ylsulfanyl)ethanone], the pEC50 was more than 6.00.

Compound `Cc1ccc(SCC(=O)N2Cc3ccccc3C2)cc1` [Compound 62, 1-(1,3-dihydro-2H-isoindol-2-yl)-2-[(4-methylphenyl)sulfanyl]ethanone] showed a pEC50 of 5.00 to 5.30.

As for `O=C(CCS(=O)(=O)c1cccc(F)n1)N1Cc2ccccc2C1` [Compound 108, 1-(1,3-dihydro-2H-isoindol-2-yl)-3-[(6-fluoropyridin-2-yl)sulfonyl]propan-1-one], the pEC50 was 5.30 to 6.00.

On to `O=C(CSc1nccs1)N1Cc2ccc([N+](=O)[O-])cc2C1` [Compound 10, 1-(5-nitro-1,3-dihydro-2H-isoindol-2-yl)-2-(1,3-thiazol-2-ylsulfanyl)ethanone], for which the pEC50 was 5.30 to 6.00.

`COC(=O)c1ccc2c(c1)CN(C(=O)CS(=O)(=O)c1nccs1)C2` [Compound 35, methyl 2-[(1,3-thiazol-2-ylsulfonyl)acetyl]-2,3-dihydro-1H-isoindole-5-carboxylate] showed a pEC50 of more than 6.00.

`O=C(CS(=O)(=O)c1cc(F)ccc1F)N1Cc2ccccc2C1` [Compound 89, 2-[(2,5-difluorophenyl)sulfonyl]-1-(1,3-dihydro-2H-isoindol-2-yl)ethanone] had a pEC50 of 5.00 to 5.30.

Turning to `COc1ccc2c(c1)CN(C(=O)CSc1ccccn1)C2` [Compound 14, 1-(5-methoxy-1,3-dihydro-2H-isoindol-2-yl)-2-(pyridin-2-ylsulfanyl)ethanone], the pEC50 was more than 6.00.

Regarding `O=C(CCSc1ccccn1)N1Cc2ccc(F)cc2C1` [Compound 24, 1-(5-fluoro-1,3-dihydro-2H-isoindol-2-yl)-3-(pyridin-2-ylsulfanyl)propan-1-one], the pEC50 is more than 6.00.

In the case of `O=C(CSc1ncccc1F)N1Cc2ccccc2C1` [Compound 71, 1-(1,3-dihydro-2H-isoindol-2-yl)-2-[(3-fluoropyridin-2-yl)sulfanyl]ethanone], the pEC50 is more than 6.00.

`O=C(CS(=O)(=O)c1ccccn1)N1Cc2ccccc2C1` [Compound 38, 1-(1,3-dihydro-2H-isoindol-2-yl)-2-(pyridin-2-ylsulfonyl)ethanone]: the pEC50 is more than 6.00.

`O=C(CSc1ccc(Cl)s1)N1Cc2ccccc2C1` [Compound 57, 2-[(5-chlorothiophen-2-yl)sulfanyl]-1-(1,3-dihydro-2H-isoindol-2-yl)ethanone] had a negative-log EC50 (pEC50) of more than 6.00.

For `O=C(C[S+]([O-])c1cccc(F)n1)N1Cc2ccccc2C1` (stereo not shown) [Compound 82, 1-(1,3-dihydro-2H-isoindol-2-yl)-2-[(6-fluoropyridin-2-yl)sulfinyl]ethanone], the pEC50 was more than 6.00.

With `O=C(CSc1ccc(CO)s1)N1Cc2ccccc2C1` [Compound 75, 1-(1,3-dihydro-2H-isoindol-2-yl)-2-{[5-(hydroxymethyl)thiophen-2-yl]sulfanyl}ethanone], the pEC50 was more than 6.00.

Compound `O=C(CS(=O)(=O)c1ccccc1)N1Cc2ccccc2C1` [Compound 45, 1-(1,3-dihydro-2H-isoindol-2-yl)-2-(phenylsulfonyl)-ethanone] had a pEC50 of more than 6.00.

With `O=C(CSc1cc(F)ccc1F)N1Cc2ccccc2C1` [Compound 58, 2-[(2,5-difluorophenyl)sulfanyl]-1-(1,3-dihydro-2H-isoindol-2-yl)ethanone], the pEC50 was more than 6.00.

`O=C(CSc1nccs1)N1Cc2ccccc2C1` [Compound 1, 1-(1,3-dihydro-2H-isoindol-2-yl)-2-(1,3-thiazol-2-ylsulfanyl)ethanone] showed a pEC50 of more than 6.00.

For the compound `O=C(CS(=O)(=O)c1nccs1)N1Cc2ccc(F)cc2C1` [Compound 31, 1-(5-fluoro-1,3-dihydro-2H-isoindol-2-yl)-2-(1,3-thiazol-2-ylsulfonyl)ethanone], the pEC50 is more than 6.00.

In turn, `N#Cc1ccc(SCC(=O)N2Cc3ccccc3C2)s1` [Compound 74, 5-{[2-(1,3-dihydro-2H-isoindol-2-yl)-2-oxoethyl]sulfanyl}thiophene-2-carbonitrile] gave a negative-log EC50 (pEC50) of more than 6.00.

Take `O=C(CSc1ccc(C(F)F)s1)N1Cc2ccccc2C1` [Compound 76, 2-{[5-(difluoromethyl)thiophen-2-yl]sulfanyl}-1-(1,3-dihydro-2H-isoindol-2-yl)ethanone]: the pEC50 is 5.30 to 6.00.

The compound `O=C(N1Cc2ccccc2C1)C(F)(F)S(=O)(=O)c1nccs1` [Compound 53, 1-(1,3-dihydro-2H-isoindol-2-yl)-2,2-difluoro-2-(1,3-thiazol-2-ylsulfonyl)ethanone] had a negative logarithm of the EC50 (pEC50) of more than 6.00.

`O=C(CCS(=O)(=O)c1nccs1)N1Cc2ccccc2C1` [Compound 48, 1-(1,3-dihydro-2H-isoindol-2-yl)-3-(1,3-thiazol-2-ylsulfonyl)propan-1-one] had a pEC50 of more than 6.00.
